Source: patent publication US4004976A, “Process for recovering the main sapogenins from the roots of rhizomes of helleborus” (Deutsche Gold- und Silber-Scheideanstalt vormals Roessler, priority 1974, dated 1977)

How the values were obtained:
[1] = test system: indometacin ulcer of rats; assay: Indometacin ulcer of rats (method of John and Adrian modified by Wilhelmi), ulcer protecting effect; type: in vivo, rat (albino rats of the strain SIV 50); conditions: for Ulcer Protecting Effect: oral, 1 h after indometacin 20 mg/kg, evaluated 24 h after indometacin
Method: These tests were carried out according to the method of John and Adrian modified by Wilhelmi on the indometacin ulcer of rats (see Arneimittelforschung Vol. 19 (1969) pages 45 et seq.)
The determination is carried out in the following manner.
Albino rats of the strain SIV 50 (S. Ivanovas, Kisslegg/Allgau) having an initial weight of 250 to 300 grams were held in controlled temperature rooms at 20° to 22° C. in wire cages (Ebeco, Type 3 double width) on a standard diet (Altromin). After 48-hour feeding intervals the animals received 20 mg/kg rat of indometacin in 1.5% tragacanth (1 ml tragacanth solution per 100 grams of rat) applied intragastrally.
One hour after giving the indometacin there was dispensed orally to the animals the test substance. The rats remain otherwise fasting (water ad libitum).
Twenty-four hours after giving the indometacin the animals were killed with CO2. The stomach was resected, opened along the great curvature and washed under flowing water.
The ulcerative changes appear as dark, point or stria shaped spots on the mucosa. The evaluation was done according to the method of Munchow, Arneimittelforschung Vol. 4 (1954) pages 341-344.

[2] = Acute toxicity, LD 50 (method of Miller and Tainter); conditions: in vivo; mouse, oral application
Method: The acute toxicity of the compound of the invention in the mouse (expressed by LD 50 mg/kg; method of Miller and Tainter; Proc. Soc. Exper. Biol. a. Med. Vol. 57 (1944) pages 261 et seq.) on oral application, for example, is above 6000 mg/kg.

central nervous system = assay: Muscle relaxing and central nervous system influencing activity; conditions: in words, no test described

Q: What does the source list for `C=C1CC[C@@]2(OC1)O[C@H]1C[C@H]3[C@@H]4CC=C5C[C@@H](O)C[C@@H](O)[C@]5(C)[C@H]4[C@H](O)C[C@]3(C)[C@H]1[C@@H]2C` [compound of the invention, spiro-5,25(27)-diene-1β,3β,11α-triol]?
A: Ulcer Protecting Effect ([1]; Daily Dosage 50 mg/kg, rat): 58%; Ulcer Protecting Effect ([1]; Daily Dosage 100 mg/kg, rat): 78%; Ulcer Protecting Effect ([1]; Daily Dosage 200 mg/kg, rat): 80%; ulcer healing activity ([1]; in words): has an ulcer healing activity; antiulcer activity ([1]; indometacin ulcers of rats, in words): good antiulcer activity; minimal effective dose ([1]; po, 24 h, orally, indometacin ulcer, rat, read-out: lowest effective dosage): 50 mg/kg; antiulcer activity compared with Biogastrone ([1]; versus known medicine Biogastrone, in words): comparable to the activity of the known medicine Biogastrone; LD50 [2]: > 6000 mg/kg; muscle relaxing and central nervous system influencing activity (central nervous system): muscle relaxing and central nervous system influencing activity has been established
